One data set relates to senescent cells. Put plainly: Senescent cell killing, CellTiter-Glo cell viability. The format is cell-based, human, mouse. The note with it: activity of killing senescent cells; cell type not specified. An excerpt:
In this test example, human non-small cell lung cancer cell line (A549 cells), human embryonic lung fibroblast cell line (IMR90 cells), human retinal pigment epithelial cells (RPE cells), mouse chondrocytes, and mouse skin fibroblasts were selected. The above cells were induced by etoposide ([…]) to obtain their senescent cells. The effect of the target compounds on the viability of normal and senescent cells above was examined, thus assessing the specific killing effect of the compounds on senescent cells above.
Briefly, senescent and normal cells above were selected and plated separately (96-well plates). […] 2A to 2E.

The test system of the next data set is diabetic retinopathy. Briefly: Mouse model of diabetic retinopathy (STZ), retinal Evans blue penetration assay. The class given is in vivo. The settings on record: intravitreal (IVT), 1 μL of 200 μM at 8 and 9 weeks after STZ, FIG. 4. Here is the method: The efficacy of the compounds of the present disclosure was studied in a mouse model of diabetic retinopathy by multiple administrations of streptozotocin (STZ). C57BL/6J mice at 6 to 7 weeks were weighed and their baseline blood glucose was measured (Sino). STZ (Sigma-Alderich) was injected intraperitoneally into the mice at 55 mg/Kg for five consecutive days. Age-matched controls were injected with buffer only. Blood glucose was measured again one week after the last STZ injection. 1 μL of the test compound (200 μM, a suspension formulated in 0.015% polysorbate 80, 0.2% sodium phosphate, 0.75% sodium chloride, pH 7.2) was injected intravitreally into the STZ-treated diabetic C57BL/6J mice at 8 and 9 weeks after STZ administration. 10 weeks after STZ treatment, the retinal Evans blue penetration assay was performed.

In data set [1] the test system is wet-age-related macular degeneration. Put plainly: CNV animal model of wet-age-related macular degeneration. The format is in vivo, mice. The note with it: intravitreal (IVT), FIG. 5. As to the method:
In this test example, the efficacy of the compounds of the present disclosure was tested on wet-age-related macular degeneration in a CNV animal model.
Male mice were administered 0.5% probacaine hydrochloride (Alcon) for local anesthesia, and 1% tropicamide to dilate the pupils of the mice. Laser cauterization was performed using a laser photocoagulator (Novus Varia, LUMENIS) with a slit lamp delivery system. And artificially torn adherent glass coverslips were used as contact lenses. Bleeding spots caused by lasers were not included in the statistics. In each experimental group, six mice were analyzed with four impacts per eye to overcome inherent variability.

Data set [2] has as its system idiopathic pulmonary fibrosis. Put plainly: Idiopathic pulmonary fibrosis animal model (bleomycin). The class given is in vivo, SD rats. The settings on record: intraperitoneal (IP) 5 mg/kg, 3 consecutive weeks, FIG. 6; for pathology scores: H&E and Masson staining; for WBC: alveolar lavage fluid; for HYP: lung tissue. Here is the method:
In this test example, the efficacy of the compounds of the present disclosure was tested on idiopathic pulmonary fibrosis in an idiopathic pulmonary fibrosis animal model. Briefly, anesthetized 6-week-old SD rats were fixed on a foam board with medical tape. Firstly, the skin on the surface of the trachea was cut with surgical scissors to fully expose the trachea, and a 100-microlitre micro-syringe containing a certain volume of bleomycin (BLM 5 mg/kg) solution drawn based on the body weight of the rat was inserted into the trachea through the oral cavity to administer by slow bolus injection. After administration of the BLM solution, the foam plate was immediately rotated and shaken to distribute the BLM solution as evenly as possible in the lung tissue. Then the skin on the surface of the trachea was sutured with surgical sutures and about 0.5 to 1.0 mL of penicillin solution was dripped onto the epidermis to prevent infection of the surgical wound. After the 7th day of modelling, the compound solution of the present disclosure was administered via intraperitoneal (IP) injection (5 mg/kg) according to the weight of the rat for 3 consecutive weeks. Rats were euthanized by carbon dioxide on Day 28, the lung tissues were removed, the left alveolar lavage fluid was collected for white blood cell (WBC) counting, the right lung tissue portion was used for hydroxyproline (HYP) assay, and the remaining lung tissues were stained for pathology by H&E staining and Masson staining.

A further data set has as its system osteoarthritis. Briefly: Osteoarthritis animal model. The class given is in vivo, mice. The note with it: intra-articular injection, FIG. 7. As to the method: In this test example, the efficacy of the compounds of the present disclosure was tested on osteoarthritis in an osteoarthritis animal model.
The osteoarthritis animal model was constructed by the following steps. The mice were anesthetized with isoflurane, and fixed. The hair on the right hind limb of the mice was shaved and the skin was disinfected with alcohol, and the skin of the joints was cut. Under an optical microscope, the inside of the right knee joint was incised longitudinally with a blade, without cutting the patellar ligament. The patellar ligament was pulled to one side with constant hemostasis by compression with sterile cotton swabs such that the joint cavity was fully exposed. Saline was added dropwise in time to avoid the drying up of the joint cavity. The excess muscle tissue was gently separated with a blunt forceps to expose the meniscus ligament. The anterior cruciate ligament was found in the depth of the joint cavity and cut with a micro scissor. Then the wound was disinfected with penicillin solution, the muscle was sutured with sterile needle and thread, and the skin tissue was finally sutured. The efficacy of the drug was determined by intra-articular injection administration. At the endpoint of the test, continued pain threshold of the plantar was detected, and the bone joints were stained with safranin fast green.

A further data set relates to Alzheimer's disease. Put plainly: Alzheimer's disease APP×PS1 transgenic mouse model. The format is in vivo. The note with it: intraperitoneal injection, 11 consecutive weeks, twice a week, FIG. 8. Here is the method:
In this test example, the efficacy of the compounds of the present disclosure was tested on Alzheimer's disease in an animal model of Alzheimer's disease. Briefly, a transgenic mouse model of APP×PS1 (purchased from Cyagen Biosciences) was selected, and the compound of the present disclosure was administered by intraperitoneal injection for 11 consecutive weeks, twice a week. Alterations in amyloid in the cerebral cortex of the mice were observed.

In the next data set the test system is aging skin. Put plainly: Aging skin, naturally aging mouse model. The class given is in vivo, C57bl/6J mice. The note with it: skin application twice a week for 6 consecutive weeks, FIG. 10. Here is the method:
In this test example, aged female C57bl/6J mice (22 months old) were used. The drug was administered by skin application twice a week for 6 consecutive weeks.

In the next data set the test system is platelets. Put plainly: Platelet toxicity test in mice (platelet count). The format is in vivo. Here is the method: In this test example, C57 mice were chosen to detect the effect of the target compounds on platelets.
7 to 8 weeks old […] mice were randomly divided into vehicle group and compound group. The test compound (0.5 mg/kg) or blank vehicle was administrated via single intraperitoneal injection. Blood was collected from the retroorbital venous plexus of the mice at 6 hours, and placed in a blood routine tube containing anticoagulant EDTA-K2. After shaking gently, the blood physiological indicators were measured using a hematology analyzer, with the platelet count as the target parameter for this platelet toxicity test.

SMILES strings stand for the structures. Bounds are passed on as bounds.

As a reminder, the IC50 is the concentration that inhibits the measured activity by half.

`Cc1c(-c2ccc(N3CCc4cccc(C(=O)Nc5nc6ccccc6s5)c4C3)nc2C(=O)N2CCN(CCO)CC2)cnn1CC12CC3CC(CC(C3)C1)C2` [RX002]: the IC50 in the data set with senescent cells was less than 0.2 µM. In addition, in the data set on diabetic retinopathy, the “vascular permeability, choroidal vascular leakage” value is given as “improved” and the “vascular permeability, retinal vascular leakage” value is “improved”. In data set [1], the fluorescence intensity indicators entry is given as “statistically significant improvements”. In addition, in data set [2], the pathology scores entry is reported as “statistically significant improvements”, the WBC entry is “statistically significant improvements” and the HYP result is listed as “statistically significant improvements”. Besides, in the data set with osteoarthritis, the “pathology scores of safranin fast green staining” value is recorded as “statistically significant improvements” and the “plantar mechanical pain threshold” value is recorded as “statistically significant improvements”. Also, the “Aβ42 pathogenic protein indicators” value with Alzheimer's disease is “statistically significant improvements”. Moreover, the “epidermal thickness scores of the skins” value with aging skin was “statistically significant improvements”.

For the compound `Cc1c(-c2ccc(N3CCc4cccc(C(=O)Nc5nc6ccccc6s5)c4C3)nc2C(=O)NC2CCN(Cc3ccccc3)CC2)cnn1CC12CC3CC(CC(C3)C1)C2` [RX003], in the data set on diabetic retinopathy, the “vascular permeability, choroidal vascular leakage” value is “improved” and the “vascular permeability, retinal vascular leakage” value is reported as “improved”. In data set [1], the fluorescence intensity indicators entry is “statistically significant improvements”. In addition, in data set [2], the pathology scores result was “statistically significant improvements”, the WBC result was “statistically significant improvements” and the HYP entry is reported as “statistically significant improvements”. Also, in the data set with osteoarthritis, the “pathology scores of safranin fast green staining” value is on record as “statistically significant improvements” and the “plantar mechanical pain threshold” value is “statistically significant improvements”. For the same compound, the “Aβ42 pathogenic protein indicators” value with Alzheimer's disease is “statistically significant improvements”. For the same compound, the “epidermal thickness scores of the skins” value with aging skin is reported as “statistically significant improvements”.

`Cc1c(-c2ccc(N3CCc4cccc(C(=O)Nc5nc6ccccc6s5)c4C3)nc2C(=O)N2CCNC(=O)C2)cnn1CC12CC3CC(CC(C3)C1)C2` [RX004] yielded an IC50 with senescent cells of 0.2 to 1 µM.

In the data set on senescent cells, `Cc1c(-c2ccc(N3CCc4cccc(C(=O)Nc5nc6ccccc6s5)c4C3)nc2C(=O)NCc2ccco2)cnn1CC12CC3CC(CC(C3)C1)C2` [RX005] showed an IC50 greater than 10 µM.

`Cc1c(-c2ccc(N3CCc4cccc(C(=O)Nc5nc6ccccc6s5)c4C3)nc2C(=O)N2CCN(C)CC2)cnn1CC12CC3CC(CC(C3)C1)C2` [RX007] came in with an IC50 in the data set on senescent cells of 0.2 to 1 µM.

Compound `Cc1c(-c2ccc(N3CCc4cccc(C(=O)Nc5nc6ccccc6s5)c4C3)nc2C(=O)N2CCNCC2)cnn1CC12CC3CC(CC(C3)C1)C2` [RX008] came in with an IC50 in the data set on senescent cells of 0.2 to 1 µM.

Take `Cc1c(-c2ccc(N3CCc4cccc(C(=O)Nc5nc6ccccc6s5)c4C3)nc2C(=O)N2CCOCC2)cnn1CC12CC3CC(CC(C3)C1)C2` [RX009]: the concentration for half-maximal inhibition (IC50) with senescent cells is less than 0.2 µM.

With `Cc1c(-c2ccc(N3CCc4cccc(C(=O)Nc5nc6ccccc6s5)c4C3)nc2C(=O)NCC2CCOCC2)cnn1CC12CC3CC(CC(C3)C1)C2` [RX010], the IC50 with senescent cells fell in the range of 0.2 to 1 µM.

In the case of `Cc1c(-c2ccc(N3CCc4cccc(C(=O)Nc5nc6ccccc6s5)c4C3)nc2C(=O)N2CCC(CO)CC2)cnn1CC12CC3CC(CC(C3)C1)C2` [RX011], the “platelet toxicity (platelet count)” value in the data set with platelets (mouse, in vivo, ip, 0.5 mg/kg) was “significantly improved”. In the data set on senescent cells, the concentration for half-maximal inhibition (IC50) is less than 0.2 µM.

Consider `Cc1c(-c2ccc(N3CCc4cccc(C(=O)Nc5nc6ccccc6s5)c4C3)nc2C(=O)NCCN2CCOCC2)cnn1CC12CC3CC(CC(C3)C1)C2` [RX012], for which the half-maximal inhibitory concentration (IC50) in the data set with senescent cells fell in the range of 0.2 to 1 µM.

In the case of `Cc1c(-c2ccc(N3CCc4cccc(C(=O)Nc5nc6ccccc6s5)c4C3)nc2C(=O)N2CCN(CCO)CC2)cnn1CC12CC3CC(CC(C3)C1)C2` [RX013], the “platelet toxicity (platelet count)” value with platelets (mouse, in vivo, ip, 0.5 mg/kg) was “significantly improved”. For the same compound, in the data set on senescent cells, the 50% inhibitory concentration (IC50) is less than 0.2 µM.

Compound `Cc1c(-c2ccc(N3CCc4cccc(C(=O)Nc5nc6ccccc6s5)c4C3)nc2C(=O)NCCO)cnn1CC12CC3CC(CC(C3)C1)C2` [RX014] registered a concentration for half-maximal inhibition (IC50) in the data set with senescent cells of 1 to 10 µM.

`Cc1c(-c2ccc(N3CCc4cccc(C(=O)Nc5nc6ccccc6s5)c4C3)nc2C(=O)NCC(=O)O)cnn1CC12CC3CC(CC(C3)C1)C2` [RX015] showed an IC50 with senescent cells of 1 to 10 µM.

Consider `Cc1c(-c2ccc(N3CCc4cccc(C(=O)Nc5nc6ccccc6s5)c4C3)nc2C(=O)N2CCN(CCN)CC2)cnn1CC12CC3CC(CC(C3)C1)C2` [RX016], for which the “platelet toxicity (platelet count)” value in the data set on platelets (mouse, in vivo, ip, 0.5 mg/kg) is “significantly improved”. In the data set with senescent cells, this compound gave a half-maximal inhibitory concentration (IC50) of 0.2 to 1 µM.

Take `Cc1c(-c2ccc(N3CCc4cccc(C(=O)Nc5nc6ccccc6s5)c4C3)nc2C(=O)N2CCC(O)CC2)cnn1CC12CC3CC(CC(C3)C1)C2` [RX019]: in the data set on platelets (mouse, in vivo, ip, 0.5 mg/kg), the “platelet toxicity (platelet count)” value is “significantly improved”. Besides, the IC50 in the data set on senescent cells was less than 0.2 µM.

In the data set with senescent cells, `Cc1c(-c2ccc(N3CCc4cccc(C(=O)Nc5nc6ccccc6s5)c4C3)nc2C(=O)NCC(=O)OCc2ccccc2)cnn1CC12CC3CC(CC(C3)C1)C2` [RX020] yielded a 50% inhibitory concentration (IC50) greater than 10 µM.

With `CCOC(=O)C(C)NC(=O)c1nc(N2CCc3cccc(C(=O)Nc4nc5ccccc5s4)c3C2)ccc1-c1cnn(CC23CC4CC(CC(C4)C2)C3)c1C` (centres unmarked) [RX021], in the data set on senescent cells, the IC50 was in the range of 1 to 10 µM.

As to `CCOC(=O)CCC(NC(=O)c1nc(N2CCc3cccc(C(=O)Nc4nc5ccccc5s4)c3C2)ccc1-c1cnn(CC23CC4CC(CC(C4)C2)C3)c1C)C(=O)OCC` (centres unmarked) [RX022], the concentration for half-maximal inhibition (IC50) with senescent cells was greater than 10 µM.

For the compound `Cc1c(-c2ccc(N3CCc4cccc(C(=O)Nc5nc6ccccc6s5)c4C3)nc2C(=O)N2CCC(OP(=O)(O)O)CC2)cnn1CC12CC3CC(CC(C3)C1)C2` [RX302], the concentration for half-maximal inhibition (IC50) in the data set on senescent cells was less than 0.2 µM.

Take `Cc1c(-c2ccc(N3CCc4cccc(C(=O)Nc5nc6ccccc6s5)c4C3)nc2C(=O)N2CCN(CCOP(=O)(O)O)CC2)cnn1CC12CC3CC(CC(C3)C1)C2` [RX304]: the “platelet toxicity (platelet count)” value in the data set on platelets (mice, 0.5 mg/kg single intraperitoneal injection, blood at 6 hours, FIG. 1) is given as “significantly improved”. The same compound yielded a concentration for half-maximal inhibition (IC50) in the data set on senescent cells of less than 0.2 µM.

The values are drawn from patent US20260256772A1, “BENZOTHIAZOLE COMPOUND AND USE THEREOF” (NANJING REJU THERAPEUTICS, INC., priority 2022, published 2026).
